Consider 30 compounds from patent publication US10208059B2, “Heterocyclic modulators of HIF activity for treatment of disease” (Board of Regents, University of Texas System, priority 2012, dated 2019).

Usually IC50 stands for the concentration that inhibits the measured activity by half.

The test system of the test is 293T-HRE-GFP-luc cells. The test is described as follows: Cell-based reporter assay for IC50 determinations. Particulars: hypoxia 6 hrs (1% O2), luminescence, read-out: IC50 Classification. Summed up: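 Cells carrying an HRE-driven GFP-luciferase reporter, seeded at 12,000/well and held overnight, then given 1:3 serial compound dilutions (DMSO, further diluted 1:50 in medium). After 30 min in normoxia, plates held 6 h in hypoxia (1% O2, 37 °C); luciferase luminescence read, IC50 by four-parameter logistic fit.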

With `Cc1nc(-c2nc(-c3ccc(OC(F)(F)F)cc3)no2)nn1Cc1ccc(=O)n(CC(C)C)c1` [Example 77a, 5-[(5-Methyl-3-{3-[4-(trifluoromethoxy)phenyl]-1,2,4-oxadiazol-5-yl}-1H-1,2,4-triazol-1-yl)methyl]-1-(2-methylpropyl)-1,2-dihydropyridin-2-one], the IC50 was less than 100 nM.
Consider `Cc1nc(-c2nc(-c3ccc(OC(F)(F)F)cc3)no2)nn1Cc1ccc(OCC(C)C)nc1` [Example 77b, 5-[(5-Methyl-3-{3-[4-(trifluoromethoxy)phenyl]-1,2,4-oxadiazol-5-yl}-1H-1,2,4-triazol-1-yl)methyl]-2-(2-methylpropoxy)pyridine], for which the IC50 was 100 to 1000 nM.
As to `Cc1nc(-c2nc(-c3ccc(OC(F)(F)F)cc3)no2)nn1Cc1cccc(N)c1` [Example 78, 3-[(5-Methyl-3-{3-[4-(trifluoromethoxy)phenyl]-1,2,4-oxadiazol-5-yl}-1H-1,2,4-triazol-1-yl)methyl]aniline], the IC50 was less than 100 nM.
To `Cc1nc(-c2nc(-c3ccc(OC(F)(F)F)cc3)no2)nn1Cc1cccc(S(=O)(=O)N2CCN(C)CC2)c1` [Example 79, 1-Methyl-4-{3-[(5-methyl-3-{3-[4-(trifluoromethoxy)phenyl]-1,2,4-oxadiazol-5-yl}-1H-1,2,4-triazol-1-yl)methyl]benzenesulfonyl}piperazine] belongs less than 100 nM.
With `Cc1nc(-c2nc(-c3ccc(OC(F)(F)F)cc3)no2)nn1Cc1cccc(N2CCNCC2)c1` [Example 81, 1-{3-[(5-Methyl-3-{3-[4-(trifluoromethoxy)phenyl]-1,2,4-oxadiazol-5-yl}-1H-1,2,4-triazol-1-yl)methyl]phenyl}piperazine] the figure was less than 100 nM; with `Cc1nc(-c2nc(-c3ccc(OC(F)(F)F)cc3)no2)nn1Cc1cccc(N2CCN(S(C)(=O)=O)CC2)c1` [Example 82, 1-Methanesulfonyl-4-{3-[(5-methyl-3-{3-[4-(trifluoromethoxy)phenyl]-1,2,4-oxadiazol-5-yl}-1H-1,2,4-triazol-1-yl)methyl]phenyl}piperazine], less than 100 nM; with `Cc1nc(-c2nc(-c3ccc(OC(F)(F)F)cc3)no2)nn1Cc1cccc(N2CCN(C(=O)CO)CC2)c1` [Example 83, 2-Hydroxy-1-(4-{3-[(5-methyl-3-{3-[4-(trifluoromethoxy)phenyl]-1,2,4-oxadiazol-5-yl}-1H-1,2,4-triazol-1-yl)methyl]phenyl}piperazin-1-yl)ethan-1-one], less than 100 nM.
Regarding `C=Cc1cccc(Cn2nc(-c3nc(-c4ccc(OC(F)(F)F)cc4)no3)nc2C)c1` [Example 84, 5-{1-[(3-Ethenylphenyl)methyl]-5-methyl-1H-1,2,4-triazol-3-yl}-3-[4-(trifluoromethoxy)phenyl]-1,2,4-oxadiazole], the IC50 was in the range of 100 to 1000 nM.
Turning to `Cc1nc(-c2nc(-c3ccc(OC(F)(F)F)cc3)no2)nn1Cc1cccc(C(O)CO)c1` (stereo not drawn) [Example 85, 1-{3-[(5-Methyl-3-{3-[4-(trifluoromethoxy)phenyl]-1,2,4-oxadiazol-5-yl}-1H-1,2,4-triazol-1-yl)methyl]phenyl}ethane-1,2-diol], the IC50 was less than 100 nM.
On to `Cc1nc(-c2nc(-c3ccc(OC(F)(F)F)cc3)no2)nn1Cc1cccc(OCC(O)CO)c1` (stereo not drawn) [Example 86, 3-{3-[(5-methyl-3-{3-[4-(trifluoromethoxy)phenyl]-1,2,4-oxadiazol-5-yl}-1H-1,2,4-triazol-1-yl)methyl]phenoxy}propane-1,2-diol], for which the IC50 is less than 100 nM.
With `Cc1nc(-c2nc(-c3ccc(OC(F)(F)F)cc3)cs2)nn1Cc1ccnc(N2CCN(C)CC2)c1` [Example 87, 1-Methyl-4-{4-[(5-methyl-3-{4-[4-(trifluoromethoxy)phenyl]-1,3-thiazol-2-yl}-1H-1,2,4-triazol-1-yl)methyl]pyridin-2-yl}piperazine] the figure was less than 100 nM; with `Cc1nc(-c2nc(-c3ccc(OC(F)(F)F)cc3)cs2)nn1Cc1cccc(S(C)(=O)=O)c1` [Example 88, 1-[(3-Methanesulfonylphenyl)methyl]-5-methyl-3-{4-[4-(trifluoromethoxy)phenyl]-1,3-thiazol-2-yl}-1H-1,2,4-triazole], 100 to 1000 nM.
Regarding `Cc1nc(-c2nc(-c3ccc(OC(F)(F)F)cc3)cs2)nn1Cc1cccc(C(=O)N(C)C)c1` [Example 89, N,N-Dimethyl-3-[(5-methyl-3-{4-[4-(trifluoromethoxy)phenyl]-1,3-thiazol-2-yl}-1H-1,2,4-triazol-1-yl)methyl]benzamide], the IC50 fell in the range of 100 to 1000 nM.
Take `COCCOc1cccc(Cn2nc(-c3nc(-c4ccc(OC(F)(F)F)cc4)cs3)nc2C)c1` [Example 90, 1-{[3-(2-Methoxyethoxy)phenyl]methyl}-5-methyl-3-{4-[4-(trifluoromethoxy)phenyl]-1,3-thiazol-2-yl}-1H-1,2,4-triazole]: the IC50 lay in the range of 100 to 1000 nM.
On to `Cc1nc(-c2nc(-c3ccc(OC(F)(F)F)cc3)cs2)nn1Cc1cccc(OCCO)c1` [Example 91, 2-{3-[(5-Methyl-3-{4-[4-(trifluoromethoxy)phenyl]-1,3-thiazol-2-yl}-1H-1,2,4-triazol-1-yl)methyl]phenoxy}ethan-1-ol], for which the IC50 fell in the range of 100 to 1000 nM.
With `Cc1nc(-c2ncc(-c3ccc(OC(F)(F)F)cc3)o2)nn1Cc1ccnc(N2CCN(C)CC2)c1` [Example 92, 1-Methyl-4-{4-[(5-methyl-3-{5-[4-(trifluoromethoxy)phenyl]-1,3-oxazol-2-yl}-1H-1,2,4-triazol-1-yl)methyl]pyridin-2-yl}piperazine], the 50% inhibitory concentration (IC50) was less than 100 nM.
Consider `Cc1nc(-c2ncc(-c3ccc(OC(F)(F)F)cc3)o2)nn1Cc1ccnc(N2CCOCC2)c1` [Example 93, 4-{4-[(5-methyl-3-{5-[4-(trifluoromethoxy)phenyl]-1,3-oxazol-2-yl}-1H-1,2,4-triazol-1-yl)methyl]pyridin-2-yl}morpholine], for which the IC50 was 100 to 1000 nM.
To `Cc1nc(-c2cc(-c3ccc(OC(F)(F)F)cc3)no2)nn1Cc1cccc(N2CCC(S(C)(=O)=O)CC2)c1` [Example 94, 5-(5-Methyl-1-(3-(4-(methylsulfonyl)piperidin-1-yl)benzyl)-1H-1,2,4-triazol-3-yl)-3-(4-(trifluoromethoxy)phenyl)isoxazole] belongs less than 100 nM.
On to `Cc1nc(-c2cc(-c3ccc(OC(F)(F)F)cc3)no2)nn1Cc1ccnc(N2CCC(S(C)(=O)=O)CC2)c1` [Example 95, 5-(5-Methyl-1-((2-(4-(methylsulfonyl)piperidin-1-yl)pyridin-4-yl)methyl)-1H-1,2,4-triazol-3-yl)-3-(4-(trifluoromethoxy)phenyl)isoxazole], for which the IC50 was less than 100 nM.
Take `Cc1nc(-c2cc(-c3ccc(OC(F)(F)F)cc3)on2)nn1Cc1cccc(N2CCC(S(C)(=O)=O)CC2)c1` [Example 96, 3-(5-Methyl-1-(3-(4-(methylsulfonyl)piperidin-1-yl)benzyl)-1H-1,2,4-triazol-3-yl)-5-(4-(trifluoromethoxy)phenyl)isoxazole]: the IC50 is less than 100 nM.
For the compound `Cc1nc(-c2cc(-c3ccc(OC(F)(F)F)cc3)on2)nn1Cc1ccnc(N2CCC(S(C)(=O)=O)CC2)c1` [Example 97, 3-(5-Methyl-1-((2-(4-(methylsulfonyl)piperidin-1-yl)pyridin-4-yl)methyl)-1H-1,2,4-triazol-3-yl)-5-(4-(trifluoromethoxy)phenyl)isoxazole], the IC50 was in the range of 100 to 1000 nM.
With `Cc1nc(-c2nnc(-c3ccc(C(C)(C)C)cc3)o2)nn1Cc1cccc(N2CCOCC2)c1` [Example 98, 4-(3-((3-(5-(4-(tert-butyl)phenyl)-1,3,4-oxadiazol-2-yl)-5-methyl-1H-1,2,4-triazol-1-yl)methyl)phenyl)morpholine] the figure was less than 100 nM; with `Cc1nc(-c2nc(-c3ccc(OC(F)(F)F)cc3)no2)nn1Cc1cncnc1` [Example 99, 5-(5-methyl-1-(pyrimidin-5-ylmethyl)-1H-1,2,4-triazol-3-yl)-3-(4-(trifluoromethoxy)phenyl)-1,2,4-oxadiazole], 1000 to 10000 nM.
Consider `Cc1cccc(Cn2nc(-c3nc(-c4ccc(OC(F)(F)F)cc4)no3)nc2C)c1` [Example 100, 5-(5-methyl-1-(3-methylbenzyl)-1H-1,2,4-triazol-3-yl)-3-(4-(trifluoromethoxy)phenyl)-1,2,4-oxadiazole], for which the IC50 is 1000 to 10000 nM.
Take `COc1cccc(Cn2nc(-c3nc(-c4ccc(OC(F)(F)F)cc4)no3)nc2C)c1` [Example 101, 5-(1-(3-methoxybenzyl)-5-methyl-1H-1,2,4-triazol-3-yl)-3-(4-(trifluoromethoxy)phenyl)-1,2,4-oxadiazole]: the IC50 lay within 100 to 1000 nM.
On to `Cc1nc(-c2nc(-c3ccc(OC(F)(F)F)cc3)no2)nn1Cc1cccc(C(F)(F)F)c1` [Example 102, 5-(5-methyl-1-(3-(trifluoromethyl)benzyl)-1H-1,2,4-triazol-3-yl)-3-(4-(trifluoromethoxy)phenyl)-1,2,4-oxadiazole], for which the IC50 fell in the range of 1000 to 10000 nM.
To `Cc1nc(-c2nc(-c3ccc(OC(F)(F)F)cc3)no2)nn1Cc1cccc(OC(F)F)c1` [Example 103, 5-(1-(3-(difluoromethoxy)benzyl)-5-methyl-1H-1,2,4-triazol-3-yl)-3-(4-(trifluoromethoxy)phenyl)-1,2,4-oxadiazole] belongs 100 to 1000 nM; to `Cc1nc(-c2nc(-c3ccc(OC(F)(F)F)cc3)no2)nn1Cc1cccc(S(N)(=O)=O)c1` [Example 104, 3-((5-methyl-3-(3-(4-(trifluoromethoxy)phenyl)-1,2,4-oxadiazol-5-yl)-1H-1,2,4-triazol-1-yl)methyl)benzenesulfonamide], 100 to 1000 nM.
With `Cc1nc(-c2nc(-c3ccc(OC(F)(F)F)cc3)no2)nn1Cc1ccc(S(N)(=O)=O)cc1` [Example 105, 4-((5-methyl-3-(3-(4-(trifluoromethoxy)phenyl)-1,2,4-oxadiazol-5-yl)-1H-1,2,4-triazol-1-yl)methyl)benzenesulfonamide] the figure was 100 to 1000 nM; with `Cc1nc(-c2nc(-c3ccc(OC(F)(F)F)cc3)no2)nn1Cc1cccc(S(C)(=O)=O)c1` [Example 106, 5-(5-methyl-1-(3-(methylsulfonyl)benzyl)-1H-1,2,4-triazol-3-yl)-3-(4-(trifluoromethoxy)phenyl)-1,2,4-oxadiazole], less than 100 nM.
